# Results: article PMC7224190, “Pharmacological inhibition of PRMT7 links arginine monomethylation to the cellular stress response” (Nature Communications, 2020)
# Tests used:
# Assay in all cases: biochemical
# Set-up in all cases: radiometric methyltransferase assay with tritiated SAM, IC50
# PRMT1 = PRMT1 (Homo sapiens, UniProt Q99873)
# Experimental: (§1) The methyltransferase selectivity was assessed at two compound concentrations of 1 and 10 μM by radiometric assays using tritiated-SAM. For methyltransferases: MLL1, MLL3, EZH1 (PRC2), and EZH2 (PRC2), G9a, GLP, SUV39H1, SUV39H2, SUV420H1, SUV420H2, SETD2, SETD8, SETDB1, SETD7, PRMT1, PRMT3, PRMT4, PRMT5/ MEP50 complex, PRMT6, PRMT7, PRMT8, PRMT9, PRDM9, SMYD2, SMYD3, DNMT1, and BCDIN3D the incorporation of a tritium-labeled methyl group into biotinylated substrate was monitored using scintillation proximity assay (SPA). Briefly, a 10 μL reaction containing ^3H-SAM and substrate at concentrations close to the apparent Km values for each enzyme (balanced conditions) was prepared. The reactions were quenched with 10 μL of 7.5 M guanidine hydrochloride; 180 μL of 20 mM Tris buffer (pH 8.0) were added, and the mixture was transferred to a 96-well FlashPlate and incubated for 1 h. The counts per minute (CPM) was measured on a TopCount plate reader. The CPM in the absence of compound or enzyme was defined as 100% activity and background (0%), respectively, for each dataset[74]–[76]. Selectivity of SGC8158 against 342 kinases was evaluated in a kinase panel TR-FRET assay at 1 and 0.1 μM compound in duplicates as described before. Briefly, tagged kinases were incubated with compound and staurosporine-based fluorescent probe where the binding was detected using Tb conjugated anti-tag antibody energy transfer to the probe. Excitation wavelength was 337 nm and fluorescent emission signal was measured for Tb (486 nm) and fluorescent probe (BODIPY, 515 nm). Specific and non-specific binding was determined in the absence and presence of unlabeled staurosporine. Assays using biotinylated H2B (23–37) as a substrate were performed in buffer (20 mM Tris–HCl, pH 8.5, 0.01% Tween-20, and 5 mM DTT) containing 5 nM PRMT7, 1.1 µM ^3H-SAM (Cat.# NET155V250UC; Perkin Elmer; www.perkinelmer.com) and 0.3 µM H2B (23–37). The reaction mixtures were incubated for 60 min at 23 °C. To stop the enzymatic reactions, 10 µL of 7.5 M guanidine hydrochloride was added, followed by 180 µL of buffer (20 mM Tris, pH 8.0), mixed and then transferred to a 96-well FlashPlate (Cat.# SMP103; Perkin Elmer; www.perkinelmer.com). After mixing, the reaction mixtures in Flash plates were incubated for 1 h and the CPM were measured using Topcount plate reader (Perkin Elmer, www.perkinelmer.com). The CPM counts in the absence of compound for each dataset were defined as 100% activity. In the absence of the enzyme, the CPM counts in each dataset were defined as background (0%). The IC50 values were determined using GraphPad Prism 7 software. For the kinetic analysis of HSPA8 methylation by PRMT7, the assay mixture contained 20 mM Tris–HCl, pH 8.5, 0.01% Tween-20, and 5 mM dithiothreitol (DTT), 1 mM MgCl2, 1 mM ATP where indicated, 250 nM PRMT7, fixed concentration (20 µM) of SAM, various concentrations (up to 40 µM) of HSPA8; or fixed concentration (10 µM) of HSPA8 with different concentrations of SAM (up to 20 µM). […] To determine the mode of action, the experiments were performed in the presence of fixed biotinylated H2B peptide (residues 23–37) or HSPA8 substrate concentration and increasing SAM concentration or at fixed concentration of SAM and varying concentration of the substrate. Twenty µL of reaction mixtures were incubated at 23 °C for 60 min. To stop reactions, 100 µL of 10% trichloroacetic acid (TCA) was added, mixed and transferred to filter-plates (Millipore; cat.# MSFBN6B10; www.millipore.com). Plates were centrifuged at 930 × g (Allegra X-15R—Beckman Coulter, Inc.) for 2 min followed by two additional 10% TCA washes and one ethanol wash followed by centrifugation. Plates were dried and 30 µL MicroScint-O (
# PRMT3 = PRMT3 (Homo sapiens, UniProt O60678)
# Experimental: as §1
# PRMT4 = target: T1, PRMT4 (Homo sapiens, UniProt Q86X55)
# T1 construct: gene CARM1
# T1 sequence (Q86X55 1-608): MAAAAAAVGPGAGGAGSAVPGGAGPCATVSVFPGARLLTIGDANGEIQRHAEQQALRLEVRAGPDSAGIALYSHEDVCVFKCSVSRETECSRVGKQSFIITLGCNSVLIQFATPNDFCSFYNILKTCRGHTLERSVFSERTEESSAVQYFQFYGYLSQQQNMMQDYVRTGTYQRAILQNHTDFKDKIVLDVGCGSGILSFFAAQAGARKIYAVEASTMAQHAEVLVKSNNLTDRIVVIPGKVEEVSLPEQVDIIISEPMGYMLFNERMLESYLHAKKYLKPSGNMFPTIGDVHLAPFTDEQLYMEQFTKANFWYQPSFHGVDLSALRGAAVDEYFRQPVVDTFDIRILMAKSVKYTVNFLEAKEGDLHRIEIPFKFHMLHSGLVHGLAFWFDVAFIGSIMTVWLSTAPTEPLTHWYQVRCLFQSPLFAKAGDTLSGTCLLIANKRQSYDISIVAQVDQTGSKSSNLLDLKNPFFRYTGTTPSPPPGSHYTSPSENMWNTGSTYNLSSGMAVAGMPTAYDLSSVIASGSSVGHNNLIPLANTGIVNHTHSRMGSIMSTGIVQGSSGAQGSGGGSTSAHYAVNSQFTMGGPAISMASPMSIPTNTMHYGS
# Experimental: as §1
# PRMT8 = PRMT8 (Homo sapiens, UniProt Q9NR22)
# Experimental: as §1
# DOT1L = DOT1L (Homo sapiens, UniProt Q8TEK3)
# DOT1L, sequence (Q8TEK3 whole entry): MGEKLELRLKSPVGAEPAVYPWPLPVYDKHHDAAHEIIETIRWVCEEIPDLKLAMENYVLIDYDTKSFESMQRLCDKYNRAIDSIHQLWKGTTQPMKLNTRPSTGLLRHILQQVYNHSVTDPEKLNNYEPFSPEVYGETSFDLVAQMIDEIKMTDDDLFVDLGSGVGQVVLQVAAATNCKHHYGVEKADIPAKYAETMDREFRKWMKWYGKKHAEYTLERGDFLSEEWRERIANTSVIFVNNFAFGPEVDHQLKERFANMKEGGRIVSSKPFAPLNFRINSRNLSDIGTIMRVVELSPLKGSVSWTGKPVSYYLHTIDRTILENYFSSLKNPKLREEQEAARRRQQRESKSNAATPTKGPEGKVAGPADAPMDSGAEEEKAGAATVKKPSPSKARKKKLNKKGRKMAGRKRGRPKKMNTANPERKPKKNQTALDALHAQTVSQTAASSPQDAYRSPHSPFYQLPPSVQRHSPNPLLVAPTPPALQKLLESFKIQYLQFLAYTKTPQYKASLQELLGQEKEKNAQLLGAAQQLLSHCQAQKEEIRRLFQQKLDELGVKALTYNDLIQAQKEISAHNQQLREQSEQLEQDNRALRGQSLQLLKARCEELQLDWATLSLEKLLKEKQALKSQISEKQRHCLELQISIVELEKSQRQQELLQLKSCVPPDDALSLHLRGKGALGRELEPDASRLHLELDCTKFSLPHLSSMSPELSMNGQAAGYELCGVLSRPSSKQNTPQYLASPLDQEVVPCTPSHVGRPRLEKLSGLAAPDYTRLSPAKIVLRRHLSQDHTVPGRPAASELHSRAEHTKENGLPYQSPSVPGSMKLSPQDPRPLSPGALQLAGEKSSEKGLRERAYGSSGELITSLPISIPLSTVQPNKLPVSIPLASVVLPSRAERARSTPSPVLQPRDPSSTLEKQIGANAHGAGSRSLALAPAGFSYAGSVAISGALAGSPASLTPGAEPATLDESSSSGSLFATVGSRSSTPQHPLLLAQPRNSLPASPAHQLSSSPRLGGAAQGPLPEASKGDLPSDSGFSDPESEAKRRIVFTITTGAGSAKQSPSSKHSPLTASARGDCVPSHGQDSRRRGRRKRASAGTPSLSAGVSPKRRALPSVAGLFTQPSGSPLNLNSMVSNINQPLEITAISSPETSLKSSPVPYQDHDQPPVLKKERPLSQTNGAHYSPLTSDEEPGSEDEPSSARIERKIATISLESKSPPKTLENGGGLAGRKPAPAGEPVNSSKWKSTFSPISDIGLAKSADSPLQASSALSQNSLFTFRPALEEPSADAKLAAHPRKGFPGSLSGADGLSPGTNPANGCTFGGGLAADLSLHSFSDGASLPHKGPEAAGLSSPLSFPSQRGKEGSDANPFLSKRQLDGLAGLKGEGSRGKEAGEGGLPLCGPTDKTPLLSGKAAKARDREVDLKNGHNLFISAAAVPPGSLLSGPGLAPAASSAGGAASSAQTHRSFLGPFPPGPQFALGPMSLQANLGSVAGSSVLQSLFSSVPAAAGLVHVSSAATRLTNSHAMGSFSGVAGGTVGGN
# PRMT1, sequence (Q99873 whole entry): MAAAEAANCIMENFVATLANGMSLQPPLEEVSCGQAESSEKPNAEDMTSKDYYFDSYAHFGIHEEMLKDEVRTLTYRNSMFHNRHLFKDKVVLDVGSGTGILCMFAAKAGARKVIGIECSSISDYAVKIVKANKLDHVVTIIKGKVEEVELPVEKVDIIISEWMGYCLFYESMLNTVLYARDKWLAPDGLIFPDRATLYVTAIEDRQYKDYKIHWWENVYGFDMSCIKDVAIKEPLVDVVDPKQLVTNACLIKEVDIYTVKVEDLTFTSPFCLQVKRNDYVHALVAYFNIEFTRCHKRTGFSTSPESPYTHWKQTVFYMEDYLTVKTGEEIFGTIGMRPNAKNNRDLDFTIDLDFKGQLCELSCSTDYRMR
# PRMT3, sequence (O60678 whole entry): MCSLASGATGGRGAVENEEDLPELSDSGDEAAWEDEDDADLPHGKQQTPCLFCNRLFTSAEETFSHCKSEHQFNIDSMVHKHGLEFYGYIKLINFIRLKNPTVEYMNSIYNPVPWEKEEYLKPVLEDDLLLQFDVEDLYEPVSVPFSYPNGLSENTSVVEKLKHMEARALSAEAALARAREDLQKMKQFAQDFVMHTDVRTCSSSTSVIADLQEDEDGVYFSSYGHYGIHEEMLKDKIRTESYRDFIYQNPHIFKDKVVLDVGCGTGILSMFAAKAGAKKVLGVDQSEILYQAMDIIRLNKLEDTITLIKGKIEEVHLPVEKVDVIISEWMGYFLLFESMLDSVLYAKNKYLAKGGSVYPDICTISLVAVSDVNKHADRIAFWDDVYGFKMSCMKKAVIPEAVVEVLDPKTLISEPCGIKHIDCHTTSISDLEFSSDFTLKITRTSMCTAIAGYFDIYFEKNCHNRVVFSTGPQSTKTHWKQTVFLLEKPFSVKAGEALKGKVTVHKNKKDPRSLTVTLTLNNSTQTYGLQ
# PRMT8, sequence (Q9NR22 whole entry): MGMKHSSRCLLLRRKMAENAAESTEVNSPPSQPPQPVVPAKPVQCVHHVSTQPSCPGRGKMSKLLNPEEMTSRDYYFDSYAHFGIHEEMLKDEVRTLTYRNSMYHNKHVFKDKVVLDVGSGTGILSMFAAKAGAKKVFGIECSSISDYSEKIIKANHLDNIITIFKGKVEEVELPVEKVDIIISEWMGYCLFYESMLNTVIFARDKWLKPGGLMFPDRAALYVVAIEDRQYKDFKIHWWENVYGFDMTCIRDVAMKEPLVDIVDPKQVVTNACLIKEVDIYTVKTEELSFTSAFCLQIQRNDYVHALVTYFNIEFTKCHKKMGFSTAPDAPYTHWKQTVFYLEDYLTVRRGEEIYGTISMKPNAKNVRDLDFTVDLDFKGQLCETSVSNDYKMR
SMILES,IC50 (PRMT1) [µM],IC50 (PRMT3) [µM],IC50 (PRMT4) [µM],IC50 (PRMT8) [µM],IC50 (DOT1L) [µM]
Nc1ncnc2c1ncn2[C@@H]1O[C@H](CSCCCNCc2cccc(-c3ccc(Cl)cc3)c2)[C@@H](O)[C@H]1O [SGC8172],> 5,0.269,0.0036,~1.5,–
Nc1ncnc2c1ncn2[C@@H]1O[C@H](CSCCCCNCc2cccc(-c3ccc(Cl)cc3)c2)[C@@H](O)[C@H]1O [SGC8158],–,–,–,–,1.7
